# According to US8415351B2 (priority 2007, dated 2013):
# Like-named read-outs stand apart in the source and are kept apart here.
# Legend:
# [1] = target: T1, HCV polymerase 1B (Δ21 NS5B, BK) (Hepatitis C virus genotype 1b, UniProt P26663); assay: biochemical
# T1 construct: 20 to 50 nM Δ21 NS5B
# Procedure, shortened: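 Δ21 NS5B (genotype 1b, BK […]) preincubated 15 min RT with inhibitor, 2 mM MnCl2, pH 7.4, 60–125 μM GTP; started with 20 μM CTP/ATP, 1 μM 3H-UTP, 5 nM template RNA, run 2–4 h RT. Spermine-precipitated RNA filter-captured, scintillation counted; IC50 from tight-binding (Morrison) fit.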
# [2] = tested on: genotype 1a-H77 subgenomic replicon cell line; assay: microbe, parasite or virus in culture; assay type: cell-based, HCV; details: read-out: EC50 1a
# [3] = target: T2, HCV polymerase 1A (Δ21 NS5B, H77) (Hepatitis C virus genotype 1a, UniProt P27958); assay: biochemical
# T2 construct: 20 to 50 nM Δ21 NS5B
# Procedure, shortened: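 Incorporation of 1 μM ^3H-UTP, with 20 μM each of CTP and ATP on 5 nM template RNA, ran 2–4 h at room temperature. Spermine-precipitated product was filtered and scintillation-counted. IC50 came from tight-binding non-linear regression of cpm against inhibitor concentration.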
# [4] = tested on: genotype 1b-Con1 subgenomic replicon cell line; assay: microbe, parasite or virus in culture; assay type: cell-based, HCV; details: read-out: EC50 1b
# T1 sequence (P26663 2420-2989, stated change not applied): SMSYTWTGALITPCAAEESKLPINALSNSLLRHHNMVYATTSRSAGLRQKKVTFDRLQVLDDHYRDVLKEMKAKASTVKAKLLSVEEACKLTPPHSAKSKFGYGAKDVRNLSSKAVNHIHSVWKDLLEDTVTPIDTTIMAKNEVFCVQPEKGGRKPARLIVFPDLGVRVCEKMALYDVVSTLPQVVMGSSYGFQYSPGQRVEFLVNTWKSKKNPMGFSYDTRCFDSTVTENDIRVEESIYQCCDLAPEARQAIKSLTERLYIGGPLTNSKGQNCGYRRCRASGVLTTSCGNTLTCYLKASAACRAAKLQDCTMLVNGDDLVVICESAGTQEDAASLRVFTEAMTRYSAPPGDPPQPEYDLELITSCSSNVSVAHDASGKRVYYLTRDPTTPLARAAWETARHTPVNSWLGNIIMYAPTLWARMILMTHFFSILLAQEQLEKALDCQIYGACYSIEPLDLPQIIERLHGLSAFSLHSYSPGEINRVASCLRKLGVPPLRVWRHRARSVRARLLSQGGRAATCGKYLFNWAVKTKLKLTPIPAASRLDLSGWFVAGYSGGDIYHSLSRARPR
# T2 sequence (P27958 2421-2990, stated change not applied): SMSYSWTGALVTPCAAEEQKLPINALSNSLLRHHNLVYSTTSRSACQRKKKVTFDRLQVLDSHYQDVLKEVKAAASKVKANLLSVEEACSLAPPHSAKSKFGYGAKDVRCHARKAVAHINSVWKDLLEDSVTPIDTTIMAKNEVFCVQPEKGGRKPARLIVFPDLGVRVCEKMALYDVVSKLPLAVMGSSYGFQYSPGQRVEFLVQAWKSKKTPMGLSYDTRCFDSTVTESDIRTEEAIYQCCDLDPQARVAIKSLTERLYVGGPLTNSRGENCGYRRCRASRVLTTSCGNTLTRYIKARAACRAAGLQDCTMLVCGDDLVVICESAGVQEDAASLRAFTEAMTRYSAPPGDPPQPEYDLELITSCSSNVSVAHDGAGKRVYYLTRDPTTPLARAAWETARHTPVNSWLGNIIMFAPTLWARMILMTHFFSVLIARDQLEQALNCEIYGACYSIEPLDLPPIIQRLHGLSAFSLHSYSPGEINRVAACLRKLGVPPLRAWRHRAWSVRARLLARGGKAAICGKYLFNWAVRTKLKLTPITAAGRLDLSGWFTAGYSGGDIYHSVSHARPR
SMILES,IC50 [1] [nM],EC50 ([2]; Hepatitis C virus) [nM],IC50 ([3]; IC50 1a) [nM],EC50 ([4]; Hepatitis C virus) [nM],"IC50 ([1]; HCV polymerase 1b, read-out: IC50 1b) [nM]","EC50 ([2]; genotype 1a-H77 replicon, luciferase reporter) [nM]",IC50 ([3]; read-out: IC50 1a) [nM],"EC50 ([4]; genotype 1b-Con1 replicon, luciferase reporter) [nM]"
"CC(C)(C)c1cc(C#Cc2ccc(NS(C)(=O)=O)cc2Cl)cc(N2CCC(=O)NC2=O)c1 [IA-L2-1.3, N-(4-((3-tert-butyl-5-(2,4-dioxotetrahydropyrimidin-1(2H)-yl)phenyl)ethynyl)-3-chlorophenyl)methanesulfonamide]",< 10,10 to 100,< 10,< 10,–,–,–,–
"COc1c(C(=O)Nc2ccc(N(C)S(C)(=O)=O)cc2)cc(N2CCC(=O)NC2=O)cc1C(C)(C)C [IA-L3-1.62, 3-tert-butyl-5-(2,4-dioxotetrahydropyrimidin-1(2H)-yl)-2-methoxy-N-(4-(N-methylmethylsulfonamido)phenyl)benzamide]",100 to 1000,> 1000,100 to 1000,100 to 1000,–,–,–,–
"COc1c(-c2ccc3c(c2)CC[C@@H]3C(C)(C)NS(C)(=O)=O)cc(-n2ccc(=O)[nH]c2=O)cc1C(C)(C)C (single isomer, unassigned) [IB-L0-2.22]",10 to 100,100 to 1000,10 to 100,10 to 100,–,–,–,–
"COc1c(-c2cccc(/C=N/NS(C)(=O)=O)c2)cc(N2CCC(=O)NC2=O)cc1C(C)(C)C [IA-L0-1.7, (E)-N′-((3′-tert-butyl-5′-(2,4-dioxotetrahydropyrimidin-1(2H)-yl)-2′-methoxybiphenyl-3-yl)methylene)methanesulfonohydrazide]",100 to 1000,> 1000,> 1000,> 1000,–,–,–,–
"COc1c(-c2ccc3cc(CNS(C)(=O)=O)sc3c2)cc(-n2ccc(=O)[nH]c2=O)cc1C(C)(C)C [IB-L0-2.40, N-((6-(3-tert-butyl-5-(2,4-dioxo-3,4-dihydropyrimidin-1(2H)-yl)-2-methoxyphenyl)benzo[b]thiophen-2-yl)methyl)methanesulfonamide]",100 to 1000,> 1000,100 to 1000,100 to 1000,–,–,–,–
"COc1c(C(=O)Nc2ccc(NS(=O)(=O)c3c(C)noc3C)cc2)cc(N2CCC(=O)NC2=O)cc1C(C)(C)C [IA-L3-1.59, 3-tert-butyl-N-[4-(3,5-dimethyl-isoxazole-4-sulfonylamino)-phenyl]-5-(2,4-dioxo-tetrahydro-pyrimidin-1-yl)-2-methoxy-benzamide]",10 to 100,> 1000,100 to 1000,> 1000,–,–,–,–
"COc1c(C#Cc2ccccc2)cc(N2CCC(=O)NC2=O)cc1C(C)(C)C [IA-L2-1.4, 1-(3-tert-butyl-4-methoxy-5-(phenylethynyl)phenyl)dihydropyrimidine-2,4(1H,3H)-dione]",100 to 1000,100 to 1000,100 to 1000,100 to 1000,–,–,–,–
"COc1c(C(=O)Nc2cccc(CNS(C)(=O)=O)c2)cc(N2CCC(=O)NC2=O)cc1C(C)(C)C [IA-L3-1.120, 3-tert-butyl-5-(2,4-dioxotetrahydropyrimidin-1(2H)-yl)-2-methoxy-N-(3-(methylsulfonamidomethyl)phenyl)benzamide]",100 to 1000,> 1000,100 to 1000,> 1000,–,–,–,–
"COc1c(-c2ccc(NS(C)(=O)=O)cc2)cc(-n2ccc(=O)[nH]c2=O)cc1C(C)(C)C [IB-L0-1.2, N-(3′-tert-butyl-5′-(2,4-dioxo-3,4-dihydropyrimidin-1(2H)-yl)-2′-methoxybiphenyl-4-yl)methanesulfonamide]",100 to 1000,> 1000,100 to 1000,> 1000,–,–,–,–
"COc1ccc(CN(c2ccc(NC(=O)c3cc(N4CCC(=O)NC4=O)cc(C(C)(C)C)c3OC)cc2)S(C)(=O)=O)cc1 [IA-L3-1.67, 3-tert-butyl-5-(2,4-dioxotetrahydropyrimidin-1(2H)-yl)-2-methoxy-N-(4-(N-(4-methoxy-benzyl)methylsulfonamido)phenyl)benzamide]",> 1000,> 1000,> 1000,100 to 1000,–,–,–,–
"COc1cc(NS(C)(=O)=O)ccc1C(=O)Nc1cc(-n2ccc(=O)[nH]c2=O)cc(C(C)(C)C)c1OC [IB-L4-1.1, N-(3-tert-butyl-5-(2,4-dioxo-3,4-dihydropyrimidin-1(2H)-yl)-2-methoxyphenyl)-2-methoxy-4-(methylsulfonamido)benzamide]",10 to 100,100 to 1000,< 10,10 to 100,–,–,–,–
"COc1c(-c2cc(F)c(/C=N/NS(C)(=O)=O)c(F)c2)cc(N2CCC(=O)NC2=O)cc1C(C)(C)C [IA-L0-1.3, (E)-N′-((3′-tert-butyl-5′-(2,4-dioxotetrahydropyrimidin-1(2H)-yl)-3,5-difluoro-2′-methoxybiphenyl-4-yl)methylene)methanesulfonohydrazide]",100 to 1000,100 to 1000,100 to 1000,100 to 1000,–,–,–,–
"CC(C)(C)c1cc(N2CCC(=O)NC2=O)cc(C(=O)Nc2nccs2)c1O [IA-L3-1.104, 3-tert-butyl-5-(2,4-dioxotetrahydropyrimidin-1(2H)-yl)-2-hydroxy-N-(thiazol-2-yl)benzamide]",100 to 1000,> 1000,> 1000,> 1000,–,–,–,–
"COc1cc(NS(C)(=O)=O)ccc1/C=C/c1cc(N2CCC(=O)NC2=O)cc(C(C)(C)C)c1OC [IA-L1-1.27, N-(4-{(E)-2-[3-tert-Butyl-5-(dioxo-tetrahydro-pyrimidin-1-yl)-2-methoxy-phenyl]-vinyl}-3-methoxy-phenyl)-methanesulfonamide]",–,–,–,–,10 to 100,10 to 100,< 10,< 10
"COc1c(C#Cc2ccc(NS(C)(=O)=O)cc2)cc(N2CCC(=O)NC2=O)cc1C(C)(C)C [IA-L2-1.8, N-(4-((3-tert-butyl-5-(2,4-dioxotetrahydropyrimidin-1(2H)-yl)-2-methoxyphenyl)ethynyl)-phenyl)methanesulfonamide]",< 10,10 to 100,< 10,< 10,–,–,–,–
"COc1c(C(=O)N(C)c2ccc(NS(C)(=O)=O)cc2)cc(N2CCC(=O)NC2=O)cc1C(C)(C)C [IA-L3-1.27, 3-tert-butyl-5-(2,4-dioxotetrahydropyrimidin-1(2H)-yl)-2-methoxy-N-methyl-N-(4-(methylsulfonamido)phenyl)benzamide]",100 to 1000,> 1000,100 to 1000,> 1000,–,–,–,–
"COc1c(-c2ccc3c(c2)CCC3NS(C)(=O)=O)cc(-n2ccc(=O)[nH]c2=O)cc1C(C)(C)C (centres unmarked) [IB-L0-2.44, N-(5-(3-tert-butyl-5-(2,4-dioxo-3,4-dihydropyrimidin-1(2H)-yl)-2-methoxyphenyl)-2,3-dihydro-1H-inden-1-yl)methanesulfonamide]",100 to 1000,> 1000,100 to 1000,> 1000,–,–,–,–
"COc1c(C#Cc2cnc(NS(C)(=O)=O)cn2)cc(-n2ccc(=O)[nH]c2=O)cc1C(C)(C)C [IB-L2-1.9, N-(5-((3-tert-butyl-5-(2,4-dioxo-3,4-dihydropyrimidin-1(2H)-yl)-2-methoxyphenyl)ethynyl)-pyrazin-2-yl)methanesulfonamide]",10 to 100,> 1000,100 to 1000,–,–,–,–,–
"COc1c(C(=O)Nc2ccc(NS(C)(=O)=O)cc2)cc(-n2c(C)cc(=O)[nH]c2=O)cc1C(C)(C)C [IB-L3-1.3, 3-tert-butyl-2-methoxy-5-(6-methyl-2,4-dioxo-3,4-dihydropyrimidin-1(2H)-yl)-N-(4-(methylsulfonamido)phenyl)benzamide]",> 1000,–,100 to 1000,100 to 1000,–,–,–,–
"COc1c(C(=O)Nc2ccc(N)nc2)cc(N2CCC(=O)NC2=O)cc1C(C)(C)C [IA-L3-1.100, N-(6-aminopyridin-3-yl)-3-tert-butyl-5-(2,4-dioxotetrahydropyrimidin-1(2H)-yl)-2-methoxy benzamide]",100 to 1000,–,> 1000,> 1000,–,–,–,–
"COc1c(C(=O)Nc2ccc(NS(C)(=O)=O)cc2)cc(N2CCC(=O)NC2=O)cc1C(C)C [IA-L3-1.111, 5-(2,4-dioxotetrahydropyrimidin-1(2H)-yl)-3-isopropyl-2-methoxy-N-(4-(methylsulfonamido)phenyl)benzamide]",100 to 1000,–,10 to 100,100 to 1000,–,–,–,–
"COc1c(C#Cc2ccc(NS(C)(=O)=O)cc2C(C)(C)C)cc(-n2ccc(=O)[nH]c2=O)cc1C(C)(C)C [IB-L2-1.10, N-(3-tert-butyl-4-((3-tert-butyl-5-(2,4-dioxo-3,4-dihydropyrimidin-1(2H)-yl)-2-methoxy-phenyl)ethynyl)phenyl)methanesulfonamide]",10 to 100,–,< 10,10 to 100,–,–,–,–
"COc1c(C(=O)Nc2ccc(NS(C)(=O)=O)c([N+](=O)[O-])c2)cc(N2CCC(=O)NC2=O)cc1C(C)(C)C [IA-L3-1.87, 3-tert-butyl-5-(2,4-dioxotetrahydropyrimidin-1(2H)-yl)-2-methoxy-N-(4-(methylsulfonamido)-3-nitrophenyl)benzamide]",100 to 1000,–,> 1000,> 1000,–,–,–,–
"COc1c(C(=O)Nc2ccc(NS(C)(=O)=O)cn2)cc(N2CCC(=O)NC2=O)cc1C(C)(C)C [IA-L3-1.102, 3-tert-butyl-5-(2,4-dioxotetrahydropyrimidin-1(2H)-yl)-2-methoxy-N-(5-(methylsulfonamido)pyridin-2-yl)benzamide]",100 to 1000,–,100 to 1000,100 to 1000,–,–,–,–
